These results are taken from patent publication US10813944B2, “Cyclodextrins as procoagulants” (STICHTING SANQUIN BLOEDVOORZIENING, priority 2016, dated 2020).

Test [1] has as its system thrombin generation in pooled normal plasma. The test can be described thus: Calibrated Automated Thrombogram thrombin generation assay in pooled normal plasma. Conditions: for procoagulant effect in normal plasma: no anticoagulant, cyclodextrin 100 μM unless otherwise indicated, 1 pM TF; for procoagulant activity (overview): pooled normal plasma with and without the addition of anticoagulants; for lag time / peak thrombin: normal plasma, versus absence of cyclodextrin. Format: biochemical, human. As for the experimental part:
(§1) FIGS. 3-8, 12, 14-19 and 22-27: Pooled normal plasma was spiked with cyclodextrins (100 μM, unless otherwise indicated) and anticoagulants. The concentrations of the anticoagulants were 100 ng/ml for dabigatran (A), 100 ng/ml for rivaroxaban (B), 60 ng/ml for apixaban (C), 60 ng/ml for edoxaban (D). The plasmas were subjected to thrombin generation analysis as described in the Materials and Methods section with 1 pM tissue factor (TF) as initiator of coagulation.
(§2) The Calibrated Automated Thrombogram® assays the generation of thrombin in clotting plasma using a microtiter plate reading fluorometer (Fluoroskan Ascent, ThermoLab systems, Helsinki, Finland) and Thrombinoscope® software (Thrombinoscope BV, Maastricht, The Netherlands). The assay was carried out as described by Hemker et al. (Pathofysiol. IIaemost. Thromb. 2003, 33, 4-15), and the Thrombinoscope® manual. Coagulation was triggered by recalcification in the presence of 1 or 5 pM recombinant human tissue factor (Innovin®, Siemens, Marburg, Germany), 4 μM phospholipids, and 417 μM fluorogenic substrate Z-Gly-Gly-Arg-AMC (Bachem, Bubendorf, Switzerland). Fluorescence was monitored using the Fluoroskan Ascent fluorometer (ThermoLabsystems, Helsinki, Finland), and the lag time, peak thrombin, velocity index and area under the curve (ETP) were calculated using the Thrombinoscope® software (Thrombinoscope BV).
Thrombin generation analyses were performed in pooled normal plasma with and without the addition of anticoagulants.

In test [2] the test system is thrombin generation in pooled normal plasma spiked with anticoagulants. The test is described as follows: Thrombin generation assay in pooled normal plasma spiked with anticoagulants. The test is classed as biochemical, human. Conditions: for effect on the anticoagulant effect of apixaban: apixaban 60 ng/ml; for effect on the anticoagulant effect of apixaban / effect on the anticoagulant effect of dabigatran / effect on the anticoagulant effect of edoxaban / effect on the anticoagulant effect of rivaroxaban: cyclodextrin 100 μM, 1 pM TF; for effect on the anticoagulant effect of dabigatran: dabigatran 100 ng/ml; for effect on the anticoagulant effect of edoxaban: edoxaban 60 ng/ml; for effect on the anticoagulant effect of rivaroxaban: rivaroxaban 100 ng/ml. As for the experimental part: as §1
FIG. 9: Pooled normal plasma was spiked with OKL-1111 (100 μM, unless otherwise indicated (A)) and anticoagulants (B-E). The concentrations of the anticoagulants were 100 ng/ml for dabigatran (B), 100 ng/ml for rivaroxaban (C), 60 ng/ml for apixaban (D), 60 ng/ml for edoxaban (E). The plasmas were subjected to thrombin generation analysis as described in the Materials and Methods section with 1 pM tissue factor (TF) as initiator of coagulation.
FIG. 10: Pooled normal plasma was spiked with OKL-1111 (100 μM) and anticoagulants (A-F). The concentrations of the anticoagulants were 2 μg/ml for fondaparinux (A), 0.4 U/ml for nadroparin (B), 0.1 U/ml for tinzaparin (C), 0.03 U/ml for unfractionated heparin (UFH) (D), 0.5 U/ml for hirudin (E) and 10 μg/ml for bivalirudin (F). The plasmas were subjected to thrombin generation analysis as described in the Materials and Methods section with 1 pM tissue factor (TF) as initiator of coagulation.
as §2

For the molecule `O=C(O)CCSCC1OC2OC3C(CO)OC(OC4C(CO)OC(OC5C(CO)OC(OC6C(CO)OC(OC7C(CO)OC(OC8C(CO)OC(OC1C(O)C2O)C(O)C8O)C(O)C7O)C(O)C6O)C(O)C5O)C(O)C4O)C(O)C3O` (centres unmarked) [OKL-1100, reference compound], in test [1], the “procoagulant effect in normal plasma” value is given as “did not show procoagulant activity” and the “procoagulant activity (overview)” value is given as “No”. Further, the “procoagulant effect in plasma containing anticoagulants (not specified / NOACs)” value (“procoagulant effect … (not specified / NOACs)” for short) in test [2] is reported as “did not show procoagulant activity”.

In the case of `O=C(O)CCSCC1OC2OC3C(CSCCC(=O)O)OC(OC4C(CSCCC(=O)O)OC(OC5C(CSCCC(=O)O)OC(OC6C(CSCCC(=O)O)OC(OC7C(CSCCC(=O)O)OC(OC8C(CSCCC(=O)O)OC(OC1C(O)C2O)C(O)C8O)C(O)C7O)C(O)C6O)C(O)C5O)C(O)C4O)C(O)C3O` (centres unmarked) [OKL-1101, reference compound], in test [1], the “procoagulant effect in normal plasma” value was “did not show procoagulant activity” and the “procoagulant activity (overview)” value was “No”. Further, the “procoagulant effect … (not specified / NOACs)” value in test [2] is recorded as “did not show procoagulant activity”.

As to `O=C(O)CCSCC1OC2OC3C(CO)OC(OC4C(CO)OC(OC5C(CO)OC(OC6C(CO)OC(OC7C(CO)OC(OC8C(CO)OC(OC9C(CO)OC(OC1C(O)C2O)C(O)C9O)C(O)C8O)C(O)C7O)C(O)C6O)C(O)C5O)C(O)C4O)C(O)C3O` (centres unmarked) [OKL-1102, reference compound], in test [1], the “procoagulant effect in normal plasma” value was “did not show procoagulant activity” and the “procoagulant activity (overview)” value is “No”. Further, the “procoagulant effect … (not specified / NOACs)” value in test [2] is “did not show procoagulant activity”.

`O=C(O)CCSCC1OC2OC3C(CSCCC(=O)O)OC(OC4C(CSCCC(=O)O)OC(OC5C(CSCCC(=O)O)OC(OC6C(CSCCC(=O)O)OC(OC7C(CSCCC(=O)O)OC(OC8C(CSCCC(=O)O)OC(OC9C(CSCCC(=O)O)OC(OC1C(O)C2O)C(O)C9O)C(O)C8O)C(O)C7O)C(O)C6O)C(O)C5O)C(O)C4O)C(O)C3O` (centres unmarked) [OKL-1103, reference compound]: in test [1], the “procoagulant effect in normal plasma” value was “did not show procoagulant activity” and the “procoagulant activity (overview)” value is given as “No”. The “procoagulant effect … (not specified / NOACs)” value in test [2] was “did not show procoagulant activity”.

In the case of `O=C(O)CCCSCC1OC2OC3C(CSCCCC(=O)O)OC(OC4C(CSCCCC(=O)O)OC(OC5C(CSCCCC(=O)O)OC(OC6C(CSCCCC(=O)O)OC(OC7C(CSCCCC(=O)O)OC(OC8C(CSCCCC(=O)O)OC(OC1C(O)C2O)C(O)C8O)C(O)C7O)C(O)C6O)C(O)C5O)C(O)C4O)C(O)C3O` (centres unmarked) [OKL-1105], the “procoagulant effect in normal plasma” value in test [1] is on record as “significant procoagulant effect”. In test [2], the “effect on the anticoagulant effect of apixaban” value (shortened to “effect … of apixaban”) is reported as “procoagulant effects were observed”, the “effect on the anticoagulant effect of dabigatran” value (from here on “effect … of dabigatran”) is recorded as “procoagulant effects were observed”, the “effect on the anticoagulant effect of edoxaban” value (shortened to “effect … of edoxaban”) is given as “procoagulant effects were observed” and the “effect on the anticoagulant effect of rivaroxaban” value (from here on “effect … of rivaroxaban”) is listed as “procoagulant effects were observed”.

In the case of `O=C(O)CCCSCC1OC2OC3C(CO)OC(OC4C(CO)OC(OC5C(CO)OC(OC6C(CO)OC(OC7C(CO)OC(OC8C(CO)OC(OC9C(CO)OC(OC1C(O)C2O)C(O)C9O)C(O)C8O)C(O)C7O)C(O)C6O)C(O)C5O)C(O)C4O)C(O)C3O` (centres unmarked) [OKL-1106], the “procoagulant effect in normal plasma” value in test [1] is “procoagulant effect”. Also, in test [2], the “effect … of apixaban” value is “less pronounced”, the “effect … of dabigatran” value was “significantly antagonized”, the “effect … of edoxaban” value was “less pronounced” and the “effect … of rivaroxaban” value is “significantly antagonized”.

As to `O=C(O)CCCSCC1OC2OC3C(CSCCCC(=O)O)OC(OC4C(CSCCCC(=O)O)OC(OC5C(CSCCCC(=O)O)OC(OC6C(CSCCCC(=O)O)OC(OC7C(CSCCCC(=O)O)OC(OC8C(CSCCCC(=O)O)OC(OC9C(CSCCCC(=O)O)OC(OC1C(O)C2O)C(O)C9O)C(O)C8O)C(O)C7O)C(O)C6O)C(O)C5O)C(O)C4O)C(O)C3O` (centres unmarked) [OKL-1107], in test [1], the “procoagulant effect in normal plasma” value was “strong procoagulant effects”, the lag time entry is listed as “considerably shorter” and the peak thrombin entry is “largely increased”. Also, in test [2], the “effect … of apixaban” value is on record as “completely restored or even higher than in the non-anticoagulated plasma”, the “effect … of dabigatran” value is listed as “completely restored or even higher than in the non-anticoagulated plasma”, the “effect … of edoxaban” value was “completely restored or even higher than in the non-anticoagulated plasma” and the “effect … of rivaroxaban” value is given as “completely restored or even higher than in the non-anticoagulated plasma”.

Take `O=C(O)CCCCCSCC1OC2OC3C(CO)OC(OC4C(CO)OC(OC5C(CO)OC(OC6C(CO)OC(OC7C(CO)OC(OC8C(CO)OC(OC1C(O)C2O)C(O)C8O)C(O)C7O)C(O)C6O)C(O)C5O)C(O)C4O)C(O)C3O` (centres unmarked) [OKL-1108]: the “procoagulant effect in normal plasma” value in test [1] is “substantial procoagulant effect”. For the same molecule, in test [2], the “effect … of apixaban” value is reported as “antagonized”, the “effect … of dabigatran” value is “antagonized”, the “effect … of edoxaban” value is “antagonized” and the “effect … of rivaroxaban” value was “antagonized”.

Turning to `O=C(O)CCCCCSCC1OC2OC3C(CSCCCCCC(=O)O)OC(OC4C(CSCCCCCC(=O)O)OC(OC5C(CSCCCCCC(=O)O)OC(OC6C(CSCCCCCC(=O)O)OC(OC7C(CSCCCCCC(=O)O)OC(OC8C(CSCCCCCC(=O)O)OC(OC1C(O)C2O)C(O)C8O)C(O)C7O)C(O)C6O)C(O)C5O)C(O)C4O)C(O)C3O` (centres unmarked) [OKL-1109], in test [1], the “procoagulant effect in normal plasma” value was “small effects”. Further, in test [2], the “effect … of apixaban” value is listed as “marginal or no effects”, the “effect … of dabigatran” value was “marginal or no effects”, the “effect … of edoxaban” value is given as “marginal or no effects” and the “effect … of rivaroxaban” value was “marginal or no effects”.

In the case of `O=C(O)CCCCCSCC1OC2OC3C(CO)OC(OC4C(CO)OC(OC5C(CO)OC(OC6C(CO)OC(OC7C(CO)OC(OC8C(CO)OC(OC9C(CO)OC(OC1C(O)C2O)C(O)C9O)C(O)C8O)C(O)C7O)C(O)C6O)C(O)C5O)C(O)C4O)C(O)C3O` (centres unmarked) [OKL-1110], the “procoagulant effect in normal plasma” value in test [1] was “very potent procoagulant effect”. In test [2], the “effect … of apixaban” value is given as “fully counteracted”, the “effect … of dabigatran” value is recorded as “strongly antagonized”, the “effect … of edoxaban” value is “fully counteracted” and the “effect … of rivaroxaban” value is on record as “fully counteracted”.

For the molecule `OCCCSCC1OC2OC3C(CSCCCO)OC(OC4C(CSCCCO)OC(OC5C(CSCCCO)OC(OC6C(CSCCCO)OC(OC7C(CSCCCO)OC(OC8C(CSCCCO)OC(OC9C(CSCCCO)OC(OC1C(O)C2O)C(O)C9O)C(O)C8O)C(O)C7O)C(O)C6O)C(O)C5O)C(O)C4O)C(O)C3O` (centres unmarked) [OKL-1146], in test [1], the “procoagulant effect in normal plasma” value is on record as “very strong procoagulant effects”, the lag time entry was “considerably shorter” and the peak thrombin result is reported as “largely increased”. For the same molecule, in test [2], the “effect … of apixaban” value is on record as “restoration of thrombin generation to levels far above that of non-anticoagulated plasma”, the “effect … of dabigatran” value is reported as “restoration of thrombin generation to levels far above that of non-anticoagulated plasma”, the “effect … of edoxaban” value is recorded as “restoration of thrombin generation to levels far above that of non-anticoagulated plasma” and the “effect … of rivaroxaban” value is on record as “restoration of thrombin generation to levels far above that of non-anticoagulated plasma”.

Regarding `O=C(O)CCCCSCC1OC2OC3C(CSCCCCC(=O)O)OC(OC4C(CSCCCCC(=O)O)OC(OC5C(CSCCCCC(=O)O)OC(OC6C(CSCCCCC(=O)O)OC(OC7C(CSCCCCC(=O)O)OC(OC8C(CSCCCCC(=O)O)OC(OC1C(O)C2O)C(O)C8O)C(O)C7O)C(O)C6O)C(O)C5O)C(O)C4O)C(O)C3O` (centres unmarked) [OKL-1178], the “procoagulant effect in normal plasma” value in test [1] is reported as “procoagulant activity”.

Take `O=C(O)CCCCCCSCC1OC2OC3C(CSCCCCCCC(=O)O)OC(OC4C(CSCCCCCCC(=O)O)OC(OC5C(CSCCCCCCC(=O)O)OC(OC6C(CSCCCCCCC(=O)O)OC(OC7C(CSCCCCCCC(=O)O)OC(OC8C(CSCCCCCCC(=O)O)OC(OC1C(O)C2O)C(O)C8O)C(O)C7O)C(O)C6O)C(O)C5O)C(O)C4O)C(O)C3O` (centres unmarked) [OKL-1179]: in test [1], the “procoagulant effect in normal plasma” value is given as “procoagulant activity”.
